From patent publication US20240199605A1, “SMALL MOLECULAR INHIBITORS OF NF-kB INDUCING KINASE” (Janssen Pharmaceutica NV, priority 2019, published 2024) come the findings set out here.

The IC50 is the concentration that inhibits the measured activity by half.

Structures are written as SMILES.

In this test the test system is p-IKKα levels in L363 (NIK translocated multiple myeloma) cells. The experiment in a line: Effect of compounds on p-IKKα levels in L363 cells (AlphaLISA SureFire Ultra). The test is classed as cell-based, human. Conditions: Homo sapiens, L-363, 6 h, BAFF stimulated, MG132, 6 h, average of values, read-out: Assay 2 IC50. The method, then: Effect of Compounds on p-IKKα Levels in L363 (NIK Translocated Multiple Myeloma) Cells
All compounds tested were dissolved and serially diluted in DMSO, 1:3 dilution for 11 points in an Echo compatible plate. 100% DMSO was added to columns 12 and 24 of the plate to serve as high and low signal controls. This compound plate was used to spot 20 nL of compound or DMSO into a Greiner 384 well TC plate (781080). The final DMSO concentration was 0.3% (v/v) in cell assays. Human L363 cells (ATCC) were cultured in RPM11640 medium supplemented with GlutaMax, non-essential amino acids, sodium pyruvate and 10% fetal bovine serum. Cells were routinely maintained at densities of […] at 37° C. in a humidified 5% CO2 atmosphere incubator. Cells were passaged twice a week splitting back to obtain the low density. The day before the assay, cells were washed twice in HBSS (Hank's Balanced Salt Solution), resuspended in Dulbecco's Modified Eagle Medium (DMEM)+0.5% IgG and protease free BSA (Jackson Immuno Research Laboratories), +/−250 ng/ml recombinant human B-cell activating factor (BAFF/BLyS/TNFSF13B) and incubated overnight at 37° C. in a humidified 5% CO2 atmosphere (bulk stimulation with or without BAFF). The next day, the cell concentration was adjusted to 1×10^7 cells/ml in DMEM+/−250 ng/ml BAFF+/−10 μM MG132 and plated at 10 μl/well into compound or DMSO spotted 384 well TC plates. Seeded cells were incubated at 37° C. in a humidified 5% CO2 atmosphere for 6 h. After 6 h, the plates were removed from the incubator and cell lysis was achieved by the addition of 2.5 μl 5× lysis buffer containing protease and phosphatase inhibitors, followed by shaking on a plate shaker at room temperature for 15 min. At the end of this incubation, lysed cells were sequentially treated and incubated with acceptor and donor bead mixes according to the manufacturer's protocol for a 1 plate/2-incubation suspension cell assay (AlphaLISA SureFire Ultra p-IKKa (Ser 176/180) Assay Kit (Perkin Elmer). Plates were read using an EnVision® Multilabel Plate Reader (Perkin Elmer). Within an experiment, a concentration response curve for each compound was run in duplicate. The signal obtained in the test wells was normalized using high signal (BAFF stimulated cells, DMSO, MG132) and low signal (unstimulated cells, DMSO) controls. To determine the IC50, a sigmoidal curve was fitted to the plot of % inhibition versus Log10 compound concentration.
In general terms: Alpha assays give light when donor and acceptor beads are brought close together.
Take `[2H]c1nc(NS(C)(=O)=O)c2nc(-c3cccc(C#C[C@]4(O)CCN(C)C4=O)c3)ccc2n1` [Example 269, (R)—N-(6-(3-((3-Hydroxy-1-methyl-2-oxopyrrolidin-3-yl)ethynyl)phenyl)pyrido[3,2-d]pyrimidin-4-yl-2-d)methanesulfonamide]: the IC50 was found to be 3850 nM. The value for `CN1CC[C@@](O)(C#Cc2cccc(-c3nc4c(N)nccc4[nH]3)c2)C1=O` [Example 59, (R)-3-[2-[3-(4-Amino-1H-imidazo[4,5-c]pyridin-2-yl)phenyl]ethynyl]-3-hydroxy-1-methyl-pyrrolidin-2-one] was greater than 5000 nM; that for `[2H]c1nc(N)c2nc(-c3cccc(C#C[C@@]4(O)C[C@H](C)N(C)C4=O)c3)ccc2n1` [Example 263, (3S,5S)-3-((3-(4-Aminopyrido[3,2-d]pyrimidin-6-yl-2-d)phenyl)ethynyl)-3-hydroxy-1,5-dimethylpyrrolidin-2-one] was 4350 nM; that for `[2H]c1nc(NC(C)=O)c2nc(-c3cccc(C#C[C@]4(O)CCN(C)C4=O)c3)ccc2n1` [Example 259, (R)—N-(6-(3-((3-Hydroxy-1-methyl-2-oxopyrrolidin-3-yl)ethynyl)phenyl)pyrido[3,2-d]pyrimidin-4-yl-2-d)acetamide] was 65 nM.

Take `[2H]c1nc(N)c2nc(-c3cccc(C#C[C@]4(O)C[C@H](C)N(C)C4=O)c3)ccc2n1` [Example 262, (3R,5S)-3-((3-(4-Aminopyrido[3,2-d]pyrimidin-6-yl-2-d)phenyl)ethynyl)-3-hydroxy-1,5-dimethylpyrrolidin-2-one]: the half-inhibitory concentration (IC50) is 220 nM. The value for `CC(=O)Nc1ncnc2ccc(-c3cccc(C#C[C@]4(O)CCN(C)C4=O)c3)nc12` [Example 238, (R)—N-(6-(3-((3-Hydroxy-1-methyl-2-oxopyrrolidin-3-yl)ethynyl)phenyl)pyrido[3,2-d]pyrimidin-4-yl)acetamide] was 73 nM; that for `CN1CC[C@@](O)(C#Cc2cccc(-c3ccc4ncnc(N)c4n3)c2)C1=O` [Example 12, (R)-3-((3-(4-Aminopyrido[3,2-d]pyrimidin-6-yl)phenyl)ethynyl)-3-hydroxy-1-methylpyrrolidin-2-one] was 3 nM.

For `CN1CC[C@@](O)(C#Cc2cccc(-c3ccc4ncncc4n3)c2)C1=O` [Example 223], the 50% inhibitory concentration (IC50) was greater than 5000 nM. The value for `[2H]c1nc(N)c2nc(-c3cccc(C#C[C@@]4(O)CCN(C)C4=O)c3)ccc2n1` [Example 9, (S)-3-((3-(4-Aminopyrido[3,2-d]pyrimidin-6-yl-2-d)phenyl)ethynyl)-3-hydroxy-1-methylpyrrolidin-2-one] was 670 nM. The value for `[2H]c1nc(N)c2nc(-c3cccc(C#C[C@@]4(O)CCCN(C)C4=O)c3)ccc2n1` [Example 199, (S)-3-((3-(4-Aminopyrido[3,2-d]pyrimidin-6-yl-2-d)phenyl)ethynyl)-3-hydroxy-1-methylpiperidin-2-one] was greater than 5000 nM.

For `[2H]c1nc(N)c2nc(-c3cccc(C#C[C@]4(O)C[C@@H](C)N(C)C4=O)c3)ccc2n1` [Example 261, (3R,5R)-3-((3-(4-Aminopyrido[3,2-d]pyrimidin-6-yl-2-d)phenyl)ethynyl)-3-hydroxy-1,5-dimethylpyrrolidin-2-one], the IC50 is 7.7 nM.

With `[2H]c1nc(N)c2nc(-c3cccc(C#C[C@]4(O)CCN(C)C4=O)c3)ccc2n1` [Example 8, (R)-3-((3-(4-Aminopyrido[3,2-d]pyrimidin-6-yl-2-d)phenyl)ethynyl)-3-hydroxy-1-methylpyrrolidin-2-one], the IC50 came to 3.3 nM. The value for `Cc1cc(C#C[C@]2(O)CCN(C)C2=O)cc(-c2nc3c(N)ncnc3s2)c1` [Example 153, (R)-3-((3-(7-Aminothiazolo[5,4-d]pyrimidin-2-yl)-5-methylphenyl)ethynyl)-3-hydroxy-1-methylpyrrolidin-2-one] was 47 nM; that for `[2H]c1nc(N)c2nc(-c3cccc(C#C[C@@]4(O)C[C@@H](C)N(C)C4=O)c3)ccc2n1` [Example 264, (3S,5R)-3-((3-(4-Aminopyrido[3,2-d]pyrimidin-6-yl-2-d)phenyl)ethynyl)-3-hydroxy-1,5-dimethylpyrrolidin-2-one] was 660 nM.
